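1) Cells in 96-well plates. 2) Compound, 48 h, 5 concentrations. 3) Linear interpolation between surrounding doses. 4) Unreached endpoint = highest concentration. GI50: concentration for 50% inhibition of growth.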 Active and inactive are the calls of the source. Cut-off read from the data, not from the text of the source: active = GI50 up to about 1.1 µM and inactive = higher.
Columns and labels:
Assay in all cases: inhibition of tumour cell growth, NCI panel, 48 h
[1] = test system: SK-OV-3
[2] = test system: HCT-15
[3] = test system: OVCAR-5
[4] = test system: KM12
[5] = test system: CAKI-1
[6] = test system: ACHN
[7] = test system: SNB-19
[8] = test system: SNB-75
[9] = test system: PC-3
[10] = test system: TK-10
[11] = test system: HT-29
[12] = test system: SF-295
[13] = test system: HCT-116
[14] = test system: RPMI-8226
[15] = test system: LOX IMVI
[16] = test system: OVCAR-8
[17] = test system: SN12C
[18] = test system: MOLT-4
[19] = test system: NCI-H23
[20] = test system: SR

| Compound | GI50 [1] | GI50 [2] | GI50 [3] | GI50 [4] | GI50 [5] | GI50 [6] | GI50 [7] | GI50 [8] | GI50 [9] | GI50 [10] | GI50 [11] | GI50 [12] | GI50 [13] | GI50 [14] | GI50 [15] | GI50 [16] | GI50 [17] | GI50 [18] | GI50 [19] | GI50 [20] |
| --- | --- | --- | --- | --- | --- | --- | --- | --- | --- | --- | --- | --- | --- | --- | --- | --- | --- | --- | --- | --- |
| O=C1C=C(Cl)C(=O)C(c2ccc(Cl)cc2)=C1 | 47.3 µM (inactive) | 18.8 µM | 17 µM (inactive) | 32.3 µM (inactive) | 17.6 µM (inactive) | 16.7 µM (inactive) | 89.3 µM (inactive) | 22.5 µM (inactive) | 15.3 µM (inactive) | 21.2 µM (inactive) | 23.7 µM (inactive) | 45.6 µM (inactive) | 19.3 µM (inactive) | 12.1 µM (inactive) | 16.1 µM (inactive) | 18.2 µM (inactive) | 22.7 µM (inactive) | 4.03 µM (inactive) | 23.2 µM (inactive) | – |
| CC(C)(CN1CCCCC1)C(/C=C/c1ccc(Cl)c(Cl)c1)=N\NC(=O)N/N=C(/C=C/c1ccc(Cl)c(Cl)c1)C(C)(C)CN1CCCCC1 | 1.92 µM (inactive) | 1.08 µM | 1.59 µM (inactive) | 1.63 µM (inactive) | 1.71 µM (inactive) | 1.89 µM (inactive) | 1.69 µM (inactive) | 1.55 µM (inactive) | > 10 µM (inactive) | 1.66 µM (inactive) | 0.361 µM (active) | 1.71 µM (inactive) | 0.908 µM (active) | 1.42 µM (inactive) | 1.12 µM (inactive) | 1.87 µM (inactive) | 1.77 µM (inactive) | 2.62 µM (inactive) | 1.93 µM (inactive) | – |
| CN(CCNC(=O)c1nn(-c2ccc(Cl)cc2Cl)c2c1Cc1ccccc1-2)CCNC(=O)c1nn(-c2ccc(Cl)cc2Cl)c2c1Cc1ccccc1-2 | 15.7 µM (inactive) | 2.29 µM | 20 µM (inactive) | 3.49 µM (inactive) | 4.94 µM (inactive) | 4.53 µM (inactive) | 3.71 µM (inactive) | 5.21 µM (inactive) | 5.87 µM (inactive) | 6.31 µM (inactive) | 2.19 µM (inactive) | 2.43 µM (inactive) | 2.1 µM (inactive) | 1.62 µM (inactive) | 2.07 µM (inactive) | 2.07 µM (inactive) | 3.79 µM (inactive) | 2.12 µM (inactive) | 5.09 µM (inactive) | – |
| CC(=O)OCc1cc(CCC(=O)NCCNc2c3ccccc3nc3ccccc23)cc(COC(C)=O)c1O[Si](C)(C)C(C)(C)C | 13.9 µM (inactive) | 14.4 µM | 13.4 µM (inactive) | 2.95 µM (inactive) | – | 13.8 µM (inactive) | 11.1 µM (inactive) | – | 10.5 µM (inactive) | 7.46 µM (inactive) | 2.63 µM (inactive) | 2.67 µM (inactive) | 4.61 µM (inactive) | 2.57 µM (inactive) | 1.95 µM (inactive) | 13.8 µM (inactive) | 1.83 µM (inactive) | 2.4 µM (inactive) | 14.5 µM (inactive) | 2.21 µM (inactive) |
| CC(C)(C)C1=CC(C)(n2[nH]c(=O)n(-c3ccccc3)c2=O)C=C(C(C)(C)C)C1=O | > 100 µM (inactive) | > 100 µM | – | > 100 µM (inactive) | > 100 µM (inactive) | > 100 µM (inactive) | > 100 µM (inactive) | 98.4 µM (inactive) | > 100 µM (inactive) | > 100 µM (inactive) | > 100 µM (inactive) | > 100 µM (inactive) | > 100 µM (inactive) | 25.2 µM (inactive) | > 100 µM (inactive) | > 100 µM (inactive) | > 100 µM (inactive) | – | > 100 µM (inactive) | – |
| COc1cc(Nc2cnc3cc(F)c(F)cc3n2)cc(OC)c1 | 21.3 µM (inactive) | > 100 µM | > 100 µM (inactive) | > 100 µM (inactive) | > 100 µM (inactive) | > 100 µM (inactive) | 26.2 µM (inactive) | 18.9 µM (inactive) | > 100 µM (inactive) | > 100 µM (inactive) | > 100 µM (inactive) | 36 µM (inactive) | 58.1 µM (inactive) | – | 67.3 µM (inactive) | > 100 µM (inactive) | > 100 µM (inactive) | > 100 µM (inactive) | 20.8 µM (inactive) | > 100 µM (inactive) |
| C=C(CN(C)C)C1(c2ccccc2)CC2(CCCC2)C(=O)O1 (stereo not given) | > 100 µM (inactive) | 76.9 µM | > 100 µM (inactive) | > 100 µM (inactive) | > 100 µM (inactive) | 92.5 µM (inactive) | > 100 µM (inactive) | > 100 µM (inactive) | 79.6 µM (inactive) | > 100 µM (inactive) | 24.2 µM (inactive) | > 100 µM (inactive) | 70.3 µM (inactive) | 88.3 µM (inactive) | 53 µM (inactive) | > 100 µM (inactive) | > 100 µM (inactive) | 24.9 µM (inactive) | 27.2 µM (inactive) | – |
| COc1cc(COC(=O)NC(Cc2cccs2)C(=O)O)c([N+](=O)[O-])cc1OC (stereo not given) | > 100 µM (inactive) | > 100 µM | > 100 µM (inactive) | > 100 µM (inactive) | – | > 100 µM (inactive) | > 100 µM (inactive) | 59.2 µM (inactive) | > 100 µM (inactive) | > 100 µM (inactive) | > 100 µM (inactive) | > 100 µM (inactive) | > 100 µM (inactive) | > 100 µM (inactive) | – | > 100 µM (inactive) | > 100 µM (inactive) | > 100 µM (inactive) | > 100 µM (inactive) | > 100 µM (inactive) |
| COc1ccc(C(CC(=O)c2ccc3c(c2)OCO3)c2c(O)oc3ccccc3c2=O)cc1OC (stereo not given) | > 100 µM (inactive) | > 100 µM | > 100 µM (inactive) | > 100 µM (inactive) | > 100 µM (inactive) | > 100 µM (inactive) | > 100 µM (inactive) | > 100 µM (inactive) | 88.5 µM (inactive) | 67.8 µM (inactive) | 72.6 µM (inactive) | > 100 µM (inactive) | 75.3 µM (inactive) | 45.1 µM (inactive) | 66.5 µM (inactive) | > 100 µM (inactive) | > 100 µM (inactive) | > 100 µM (inactive) | 78 µM (inactive) | – |
| Cc1c(S(=O)(=O)N/C(N)=N/c2ccc(Cl)cc2)sc2ccc(Cl)cc12 | 26.1 µM (inactive) | 19.4 µM | 18.8 µM (inactive) | 28.1 µM (inactive) | – | 17 µM (inactive) | 21.4 µM (inactive) | 19.6 µM (inactive) | 14.7 µM (inactive) | 19.9 µM (inactive) | 19.8 µM (inactive) | 20.7 µM (inactive) | 15.9 µM (inactive) | 33.7 µM (inactive) | 20 µM (inactive) | 19.3 µM (inactive) | 15.7 µM (inactive) | 28.6 µM (inactive) | 18 µM (inactive) | 47.3 µM (inactive) |
| Cc1ccc(NC(=O)C(=O)C2C(=O)NC(=O)NC2=O)cc1C | > 100 µM (inactive) | > 100 µM | > 100 µM (inactive) | > 100 µM (inactive) | > 100 µM (inactive) | > 100 µM (inactive) | > 100 µM (inactive) | > 100 µM (inactive) | – | > 100 µM (inactive) | > 100 µM (inactive) | > 100 µM (inactive) | > 100 µM (inactive) | > 100 µM (inactive) | > 100 µM (inactive) | > 100 µM (inactive) | > 100 µM (inactive) | > 100 µM (inactive) | > 100 µM (inactive) | > 100 µM (inactive) |
